# In ChEMBL document CHEMBL4219190, “Studies on synthesis of novel pyrido[2,3-d]pyrimidine derivatives, evaluation of their antimicrobial activity and molecular docking” (Bioorg Med Chem Lett, 2018):
# The source made the active and inactive calls. The rule behind the calls is not given here.
# Key:
# Candida albicans [1] = test: Antifungal activity against Candida albicans MTCC 3958 after 24 hrs by well diffusion method; assay type: functional; settings: MTCC 3958, 24 h
# Candida albicans [2] = test: Antifungal activity against Candida albicans MTCC 854 after 24 hrs by well diffusion method; assay type: functional
# Candida parapsilosis [3] = test: Fungicidal activity against Candida parapsilosis MTCC 1744 incubated for 24 hrs followed by transfer of microbial suspension to Sabouraud dextrose agar plates and measured after 24 hrs post transfer; assay type: functional
# Candida albicans [4] = test: Antifungal activity against Candida albicans MTCC 3017 after 24 hrs by well diffusion method; assay type: functional; settings: MTCC 3017, 24 h
# Candida albicans [5] = test: Fungicidal activity against Candida albicans MTCC 3018 incubated for 24 hrs followed by transfer of microbial suspension to Sabouraud dextrose agar plates and measured after 24 hrs post transfer; assay type: functional; settings: MTCC 3018, 24 h
# [Candida] aaseri [6] = Antifungal activity against Candida aaseri MTCC 1962 after 24 hrs by well diffusion method; assay type: functional; settings: Yamadazyma aaseri, MTCC 1962, 24 h
# Candida albicans [7] = test: Fungicidal activity against Candida albicans MTCC 227 incubated for 24 hrs followed by transfer of microbial suspension to Sabouraud dextrose agar plates and measured after 24 hrs post transfer; assay type: functional
# Candida albicans [8] = test: Fungicidal activity against Candida albicans MTCC 854 incubated for 24 hrs followed by transfer of microbial suspension to Sabouraud dextrose agar plates and measured after 24 hrs post transfer; assay type: functional
# Pichia kudriavzevii [9] = test: Fungicidal activity against Candida krusei MTCC 3020 incubated for 24 hrs followed by transfer of microbial suspension to Sabouraud dextrose agar plates and measured after 24 hrs post transfer; assay type: functional; settings: MTCC 3020, 24 h
# Candida albicans [10] = test: Fungicidal activity against Candida albicans MTCC 3958 incubated for 24 hrs followed by transfer of microbial suspension to Sabouraud dextrose agar plates and measured after 24 hrs post transfer; assay type: functional; settings: MTCC 3958, 24 h
# Candida albicans [11] = test: Antifungal activity against Candida albicans MTCC 1637 after 24 hrs by well diffusion method; assay type: functional
# Candida albicans [12] = test: Fungicidal activity against Candida albicans MTCC 3017 incubated for 24 hrs followed by transfer of microbial suspension to Sabouraud dextrose agar plates and measured after 24 hrs post transfer; assay type: functional; settings: MTCC 3017, 24 h
# Candida albicans [13] = test: Fungicidal activity against Candida albicans MTCC 183 incubated for 24 hrs followed by transfer of microbial suspension to Sabouraud dextrose agar plates and measured after 24 hrs post transfer; assay type: functional; settings: MTCC 183, 24 h
# Nakaseomyces glabratus [14] = test: Fungicidal activity against Candida glabrata MTCC 3019 incubated for 24 hrs followed by transfer of microbial suspension to Sabouraud dextrose agar plates and measured after 24 hrs post transfer; assay type: functional; settings: MTCC 3019, 24 h
# Candida albicans [15] = test: Fungicidal activity against Candida albicans MTCC 7315 incubated for 24 hrs followed by transfer of microbial suspension to Sabouraud dextrose agar plates and measured after 24 hrs post transfer; assay type: functional; settings: MTCC 7315, 24 h
# Candida parapsilosis [16] = test: Antifungal activity against Candida parapsilosis MTCC 1744 after 24 hrs by well diffusion method; assay type: functional
# Candida albicans [17] = test: Antifungal activity against Candida albicans MTCC 183 after 24 hrs by well diffusion method; assay type: functional; settings: MTCC 183, 24 h
# Candida albicans [18] = test: Inhibition of ergosterol in Candida albicans MTCC 183 after 20 hrs by UV spectrophotometric method; assay type: functional, organism-based
# Candida albicans [19] = test: Antifungal activity against Candida albicans MTCC 227 after 24 hrs by well diffusion method; assay type: functional
# Candida albicans [20] = test: Fungicidal activity against Candida albicans MTCC 4748 incubated for 24 hrs followed by transfer of microbial suspension to Sabouraud dextrose agar plates and measured after 24 hrs post transfer; assay type: functional; settings: MTCC 4748, 24 h
# Candida albicans [21] = test: Antifungal activity against Candida albicans MTCC 4748 after 24 hrs by well diffusion method; assay type: functional; settings: MTCC 4748, 24 h
# Pichia kudriavzevii [22] = test: Antifungal activity against Candida krusei MTCC 3020 after 24 hrs by well diffusion method; assay type: functional; settings: MTCC 3020, 24 h
# Pichia sporocuriosa [23] = test: Antifungal activity against Issatchenkia hanoiensis MTCC 4755 after 24 hrs by well diffusion method; assay type: functional; settings: MTCC 4755, 24 h
# Candida albicans [24] = test: Antifungal activity against Candida albicans MTCC 7315 after 24 hrs by well diffusion method; assay type: functional; settings: MTCC 7315, 24 h
# Pichia sporocuriosa [25] = test: Fungicidal activity against Issatchenkia hanoiensis MTCC 4755 incubated for 24 hrs followed by transfer of microbial suspension to Sabouraud dextrose agar plates and measured after 24 hrs post transfer; assay type: functional; settings: MTCC 4755, 24 h
# [Candida] aaseri [26] = Fungicidal activity against Candida aaseri MTCC 1962 incubated for 24 hrs followed by transfer of microbial suspension to Sabouraud dextrose agar plates and measured after 24 hrs post transfer; assay type: functional; settings: Yamadazyma aaseri, MTCC 1962, 24 h
# Candida albicans [27] = test: Antifungal activity against Candida albicans MTCC 3018 after 24 hrs by well diffusion method; assay type: functional; settings: MTCC 3018, 24 h
# Candida albicans [28] = test: Fungicidal activity against Candida albicans MTCC 1637 incubated for 24 hrs followed by transfer of microbial suspension to Sabouraud dextrose agar plates and measured after 24 hrs post transfer; assay type: functional
# Nakaseomyces glabratus [29] = test: Antifungal activity against Candida glabrata MTCC 3019 after 24 hrs by well diffusion method; assay type: functional; settings: MTCC 3019, 24 h
# Staphylococcus aureus [30] = test: Antibiofilm activity against Staphylococcus aureus MTCC 96 after 24 hrs by crystal violet staining-based assay; assay type: functional, organism-based; settings: Staphylococcus aureus, MTCC 96, 24 h; read-out: IC50
# Pseudomonas aeruginosa [31] = test: Bactericidal activity against Pseudomonas aeruginosa MTCC 2453 incubated for 24 hrs followed by transfer of microbial suspension to Mueller Hinton agar plates and measured after 24 hrs post transfer; assay type: functional
# Micrococcus luteus [32] = test: Bactericidal activity against Micrococcus luteus MTCC 2470 incubated for 24 hrs followed by transfer of microbial suspension to Mueller Hinton agar plates and measured after 24 hrs post transfer; assay type: functional
# Staphylococcus aureus [33] = test: Antibacterial activity against Staphylococcus aureus MTCC 96 after 24 hrs by well diffusion method; assay type: functional; settings: MTCC 96, 24 h
# Bacillus subtilis [34] = test: Antibacterial activity against Bacillus subtilis MTCC 121 after 24 hrs by well diffusion method; assay type: functional
# Pseudomonas aeruginosa [35] = test: Antibacterial activity against Pseudomonas aeruginosa MTCC 2453 after 24 hrs by well diffusion method; assay type: functional
# Micrococcus luteus [36] = test: Antibacterial activity against Micrococcus luteus MTCC 2470 after 24 hrs by well diffusion method; assay type: functional
# Bacillus subtilis [37] = test: Antibiofilm activity against Bacillus subtilis MTCC 121 after 24 hrs by crystal violet staining-based assay; assay type: functional, organism-based
# Staphylococcus aureus [38] = test: Antibacterial activity against Staphylococcus aureus MLS16 MTCC 2940 after 24 hrs by well diffusion method; assay type: functional
# Staphylococcus aureus [39] = test: Bactericidal activity against Staphylococcus aureus MTCC 96 incubated for 24 hrs followed by transfer of microbial suspension to Mueller Hinton agar plates and measured after 24 hrs post transfer; assay type: functional; settings: MTCC 96, 24 h
# Raoultella planticola [40] = test: Antibacterial activity against Klebsiella planticola MTCC 530 after 24 hrs by well diffusion method; assay type: functional
# Pseudomonas aeruginosa [41] = test: Antibiofilm activity against Pseudomonas aeruginosa MTCC 2453 after 24 hrs by crystal violet staining-based assay; assay type: functional, organism-based
# Escherichia coli [42] = test: Antibacterial activity against Escherichia coli MTCC 739 after 24 hrs by well diffusion method; assay type: functional
# Staphylococcus aureus [43] = test: Antibiofilm activity against Staphylococcus aureus MLS16 MTCC 2940 after 24 hrs by crystal violet staining-based assay; assay type: functional, organism-based
# Staphylococcus aureus [44] = test: Bactericidal activity against Staphylococcus aureus MLS16 MTCC 2940 incubated for 24 hrs followed by transfer of microbial suspension to Mueller Hinton agar plates and measured after 24 hrs post transfer; assay type: functional
# Raoultella planticola [45] = test: Bactericidal activity against Klebsiella planticola MTCC 530 incubated for 24 hrs followed by transfer of microbial suspension to Mueller Hinton agar plates and measured after 24 hrs post transfer; assay type: functional
# Escherichia coli [46] = test: Bactericidal activity against Escherichia coli MTCC 739 incubated for 24 hrs followed by transfer of microbial suspension to Mueller Hinton agar plates and measured after 24 hrs post transfer; assay type: functional
# Raoultella planticola [47] = test: Antibiofilm activity against Klebsiella planticola MTCC 530 after 24 hrs by crystal violet staining-based assay; assay type: functional, organism-based
# Bacillus subtilis [48] = test: Bactericidal activity against Bacillus subtilis MTCC 121 incubated for 24 hrs followed by transfer of microbial suspension to Mueller Hinton agar plates and measured after 24 hrs post transfer; assay type: functional
smiles,measurement,setting,value
Clc1ccc(COC(Cn2ccnc2)c2ccc(Cl)cc2Cl)c(Cl)c1 (stereo unspecified) [MICONAZOLE],MIC,Candida albicans [1],7.8 µg/mL
same,MIC,"Candida albicans [2]; MTCC 854, 24 h",7.8 µg/mL
same,MFC,"Candida parapsilosis [3]; Lodderomyces parapsilosis, MTCC 1744, 24 h",7.8 µg/mL
same,MIC,Candida albicans [4],7.8 µg/mL
same,MFC,Candida albicans [5],15.6 µg/mL
same,MIC,[Candida] aaseri [6],7.8 µg/mL
same,MFC,"Candida albicans [7]; MTCC 227, 24 h",7.8 µg/mL
same,MFC,"Candida albicans [8]; MTCC 854, 24 h",15.6 µg/mL
same,MFC,Pichia kudriavzevii [9],15.6 µg/mL
same,MFC,Candida albicans [10],7.8 µg/mL
same,MIC,"Candida albicans [11]; MTCC 1637, 24 h",7.8 µg/mL
same,MFC,Candida albicans [12],7.8 µg/mL
same,MFC,Candida albicans [13],7.8 µg/mL
same,MFC,Nakaseomyces glabratus [14],7.8 µg/mL
same,MFC,Candida albicans [15],15.6 µg/mL
same,MIC,"Candida parapsilosis [16]; MTCC 1744, 24 h",7.8 µg/mL
same,MIC,Candida albicans [17],7.8 µg/mL
same,inhibition,Candida albicans [18],Dose-dependent effect
same,MIC,"Candida albicans [19]; MTCC 227, 24 h",7.8 µg/mL
same,MFC,Candida albicans [20],7.8 µg/mL
same,MIC,Candida albicans [21],7.8 µg/mL
same,MIC,Pichia kudriavzevii [22],7.8 µg/mL
same,MIC,Pichia sporocuriosa [23],7.8 µg/mL
same,MIC,Candida albicans [24],7.8 µg/mL
same,MFC,Pichia sporocuriosa [25],15.6 µg/mL
same,MFC,[Candida] aaseri [26],15.6 µg/mL
same,MIC,Candida albicans [27],7.8 µg/mL
same,MFC,"Candida albicans [28]; MTCC 1637, 24 h",7.8 µg/mL
same,MIC,Nakaseomyces glabratus [29],7.8 µg/mL
O=C(NCCO)c1nc(-c2ccccc2)c2c(C(F)(F)F)cc(-c3ccccc3)nc2n1,IC50,Staphylococcus aureus [30],21.6 µg/mL
same,MBC,Pseudomonas aeruginosa [31],inactive
same,MIC,Candida albicans [1],31.2 µg/mL
same,MIC,Candida albicans [2],inactive
same,MBC,Micrococcus luteus [32],inactive
same,MIC,Staphylococcus aureus [33],31.2 µg/mL
same,MFC,Candida parapsilosis [3],inactive
same,MIC,Bacillus subtilis [34],inactive
same,MIC,Pseudomonas aeruginosa [35],inactive
same,MIC,Candida albicans [4],31.2 µg/mL
same,MIC,Micrococcus luteus [36],inactive
same,MFC,Candida albicans [5],31.2 µg/mL
same,MIC,[Candida] aaseri [6],31.2 µg/mL
same,MFC,Candida albicans [7],inactive
same,MFC,Candida albicans [8],inactive
same,IC50,Bacillus subtilis [37],Not Active
same,MFC,Pichia kudriavzevii [9],62.5 µg/mL
same,MFC,Candida albicans [10],62.5 µg/mL
same,MIC,Candida albicans [11],inactive
same,MFC,Candida albicans [12],62.5 µg/mL
same,MIC,Staphylococcus aureus [38],inactive
same,MFC,Candida albicans [13],62.5 µg/mL
same,MBC,Staphylococcus aureus [39],62.4 µg/mL
same,MFC,Nakaseomyces glabratus [14],31.2 µg/mL
same,MIC,Raoultella planticola [40],inactive
same,MFC,Candida albicans [15],62.5 µg/mL
same,MIC,Candida parapsilosis [16],inactive
same,MIC,Candida albicans [17],31.2 µg/mL
same,MIC,Candida albicans [19],inactive
same,MFC,Candida albicans [20],62.5 µg/mL
same,MIC,Candida albicans [21],62.5 µg/mL
same,IC50,Pseudomonas aeruginosa [41],Not Active
same,MIC,Escherichia coli [42],inactive
same,MIC,Pichia kudriavzevii [22],31.2 µg/mL
same,MIC,Pichia sporocuriosa [23],15.6 µg/mL
same,MIC,Candida albicans [24],31.2 µg/mL
same,MFC,Pichia sporocuriosa [25],15.6 µg/mL
same,MFC,[Candida] aaseri [26],31.2 µg/mL
same,IC50,Staphylococcus aureus [43],Not Active
same,MIC,Candida albicans [27],15.6 µg/mL
same,MBC,Staphylococcus aureus [44],inactive
same,MBC,Raoultella planticola [45],inactive
same,MBC,Escherichia coli [46],inactive
same,IC50,Raoultella planticola [47],Not Active
same,MBC,Bacillus subtilis [48],inactive
same,MFC,Candida albicans [28],inactive
same,MIC,Nakaseomyces glabratus [29],15.6 µg/mL
